Source: patent US7022663B2 (Yeda Research and Development Co., Ltd., priority 2000, dated 2006)
Several values for one entry are separate records, joined by “and”; a condition that tells them apart may be missing. Equal entries are not always repeated. Where two headings read alike, the source gives them in different places.

Experiments:
[1] = system: Experimental allergic Encephalomyelitis (EAE)
Experimental: Rhesus monkeys were fed with the enteric coated capsules. 5 feedings before disease induction and 5 feedings after disease induction, on alternate days. Experimental allergic Encephalomyelitis (EAE) was induced by injecting 8 mg myelin basic protein (MBP) in complete Freund's adjuvant (CFA) intra-dermally into the leg. EAE symptoms were evaluated on the following scale:
Evaluation of EAE clinical signs

EAE [2] = conditions: enteric-coated tablets
Source text: As in Example 3B, observation began on day 8 and continued until the conclusion of the experiment, which, in this case, was day 57. […] EAE-related neurological signs appeared between day 14 and 54 as specified in Table 9. Animals were sacrificed when they reached score 4.

IL-2 [3] = conditions: oral, enteric coated capsules, MS patients
Th2 = conditions: cited from earlier work
EAE [4] = system: EAE
Source text: EAE was induced in Lewis rats by the injection of guinea pig spinal cord homogenate in CFA into the hind legs.

EAE [5] = conditions: monkey, in vivo
IFN-γ = conditions: cited from earlier work
IL-2 [6] = conditions: cited from earlier work
IL-10 = conditions: oral, enteric coated capsules, MS patients
[7] = system: experimental allergic encephalomyelitis (EAE); conditions: cited from earlier work
[8] = system: exacerbating-remitting multiple sclerosis; conditions: daily subcutaneous injections, phase III; cited from earlier work
T cell = conditions: Aharoni et al. 1997; cited from earlier work
Chronic-relapsing EAE = system: Chronic-relapsing EAE
Source text: Chronic—relapsing EAE was induced in female Biozzi mice by the injection of mouse spinal cord homogenate (MSCH) in CFA, following by re-injection of the encephalitogen one week later, in the same manner.

[9] = system: relapsing-remitting form of EAE; test: Induction of relapsing-remitting EAE in Cynamologus monkeys by MBP in CFA; type: in vivo
Experimental: A relapsing-remitting form of EAE was induced by the injection of emulsified MBP in CFA containing 3 mg/ml of Mycobacterium Tuberculosis (MT), intradermally into right & left footpads.
Observation was initiated on day 8.

[10] = all dose groups, daily gavage of solution
[11] = oral solution daily from day 16

L-glutamic acid polymer with L-alanine, L-lysine and L-tyrosine, acetate (salt) [Copolymer 1]
signs of EAE ([1]; 20 mg in enteric coated capsules, 5 feedings before and 5 after induction on alternate days, first study (FIG. 1), one animal): did not develop any signs of disease till day 60
course of EAE upon treatment with 20 mg capsules ([1]; animal first treated with 1 mg capsules, then 20 mg enteric coated capsules): healed completely
outcome of EAE ([1]; second study (FIG. 2), capsules not gastro-protective (opened in the stomach)): died from the disease
protection from EAE ([1]; second study (FIG. 2), enteric coated capsules 1, 10 and 20 mg): fully protected from EAE
Incidence (EAE [2]; 10 mg group): 3/3
Mean Disease Onset Day (EAE [2]; 10 mg group): 30
Mean Maximal Score (EAE [2]; 10 mg group): 2.33
Mean Score (EAE [2]; 10 mg group): 1.3 ± 0.56
Incidence (EAE [2]; 20 mg group): 3/3
Mean Disease Onset Day (EAE [2]; 20 mg group): 30
Mean Maximal Score (EAE [2]; 20 mg group): 2.33
Mean Score (EAE [2]; 20 mg group): 1.6 ± 0.53
effect on incidence of the disease (EAE [2]; 10 and 20 mg): does not change the incidence of the disease
most effective dosage (EAE [2]; 10 and 20 mg tested, confirms Example 3B): 10 mg
change of IL-2 (IL-2 [3]): decrease
beneficial Th2 anti-inflammatory response (Th2): induced
% of sick rats (EAE [4]; [10]): reduced
disease duration (EAE [4]; [10]): reduced
disease onset (EAE [4]; [10]): delayed
severity of disease (mean score and mean maximal score) (EAE [4]; [10]): reduced
effect on EAE (EAE [4]; solution 0.1-10 mg/kg by gavage every day from induction to day 24): inhibited
Daily Clinical Score (EAE [5]): 2
Incidence (EAE [5]): 3/3 and 1/3
Mean Disease Onset Day (EAE [5]): 14.33 and 18.33 and 23
most effective dosage (EAE [5]): 10 mg
pattern of disease compared with placebo group (EAE [5]): no obvious improvement
pro-GVHD IFN-γ cytokine secretion (IFN-γ): prevented
pro-GVHD IL-2 cytokine secretion (IL-2 [6]): prevented
change of IL-10 (IL-10): increase
effect on EAE ([7]; induced by various encephalitogens including MSCH, MBP, PLP, MOG): suppress
activity by injection ([7]; injected subcutaneously, intra-peritoneally, intravenously or intramuscularly): active
progression of disability [8]: slow
relapse rate [8]: reduce
T cell proliferation in response to host cell (T cell): inhibited
EAE clinical symptoms of the second relapse (Chronic-relapsing EAE; oral solution 0.5, 2.5, 12.5 mg/kg/day from day 16, dose-dependent): reduced
incidence of second relapse, severity of symptoms, duration of relapse (Chronic-relapsing EAE; [11]): suppressive effect was demonstrated in all parameters checked
most effective dose (Chronic-relapsing EAE; [11]): 12.5 mg/kg

B1: MBP: myelin basic protein, natural component of the myelin sheath, injected in CFA to induce EAE (protein, UniProt P02686 1-304, looked up)
Myelin basic protein: MGNHAGKRELNAEKASTNSETNRGESEKKRNLGELSRTTSEDNEVFGEADANQNNGTSSQDTAVTDSKRTADPKNAWQDAHPADPGSRPHLIRLFSRDAPGREDNTFKDRPSESDELQTIQEDSAATSESLDVMASQKRPSQRHGSKYLATASTMDHARHGFLPRHRDTGILDSIGRFFGGDRGAPKRGSGKDSHHPARTAHYGSLPQKSHGRTQDENPVVHFFKNIVTPRTPPPSQGKGRGLSLSRFSWGAEGQRPGFGYGGRASDYKSAHKGFKGVDAQGTLSKIFKLGGRDSRSGSPMARR
Daily Clinical Score ([9]; Female Z-920, dose 2.5 mg, columns = days 14-32 after induction): 3 and 5
Daily Clinical Score ([9]; Male Z-701, dose 10 mg, columns = days 14-32): 0
Daily Clinical Score ([9]; Male Z-1669, dose 5 mg, columns = days 14-32): 0
